Laboratory results from PubChem BioAssay AID1259411 (Chemical Carcinogenesis Research Information System (CCRIS), 2018).
Active and inactive are the calls of the source. The rule behind the calls is not given here.

Tested on: rodent carcinogenicity bioassays, tumor incidence
Experiment: CCRIS carcinogenicity studies
Conditions: Dose: 0, Dose: 0
Outline: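 Archive of carcinogenicity, mutagenicity, tumor promotion and tumor inhibition results drawn from journals, NCI reports and other sources, expert-reviewed; covers 1985-2011 and is no longer updated.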

NC(=O)N(CCCO)N=O
carcinogen call (Species: RAT, Strain/Sex: F344/FEMALE, Route: GAVAGE, 8 MG/ML (TOTAL DOSE 0; 0.9 MMOL) IN 2 ML ETHYL ACETATE AND CORN OIL (1:2) 2/WK FOR 40 WK (STUDY DURATION: LIFETIME), 8 MG/ML (TOTAL DOSE 0; 0.9 MMOL) IN 2 ML ETHYL ACETATE AND CORN OIL (1:2) 2/WK FOR 40 WK (STUDY DURATION: LIFETIME), Tumor Site: Type of Lesion: THYROID: C-CELL TUMOR): active; positive
carcinogen call (Species: RAT, Strain/Sex: F344/FEMALE, Route: GAVAGE, 8 MG/ML IN 0.2 ML ETHYL ACETATE AND CORN OIL 2/WK FOR 40 WK (STUDY DURATION: LIFESPAN), Tumor Site: Type of Lesion: THYROID: C-CELL TUMOR, UTERUS: TUMOR): active; positive
carcinogen call (Species: RAT, Strain/Sex: F344/FEMALE, Route: GAVAGE, 16 MG/ML (TOTAL DOSE 0; 1.3 MMOL) IN 2 ML ETHYL ACETATE AND CORN OIL (1:2) 2/WK FOR 30 WK (STUDY DURATION: LIFETIME), 16 MG/ML (TOTAL DOSE 0; 1.3 MMOL) IN 2 ML ETHYL ACETATE AND CORN OIL (1:2) 2/WK FOR 30 WK (STUDY DURATION: LIFETIME)): inactive; negative
carcinogen call (Species: RAT, Strain/Sex: F344/FEMALE, Route: GAVAGE, 16 MG/ML IN 0.2 ML ETHYL ACETATE AND CORN OIL 2/WK FOR 30 WK (STUDY DURATION: LIFESPAN), Tumor Site: Type of Lesion: LIVER: TUMOR, FORESTOMACH: TUMOR, THYROID: C-CELL TUMOR, UTERUS: TUMOR, DUODENUM: TUMOR, Tumor Site: Type of Lesion: LIVER: TUMOR, FORESTOMACH: TUMOR, THYROID: C-CELL TUMOR, UTERUS: TUMOR, DUODENUM: TUMOR): active; positive
carcinogen call (Species: RAT, Strain/Sex: F344/MALE, Route: GAVAGE, 8 MG/ML (TOTAL DOSE 0; 0.9 MMOL) IN 2 ML ETHYL ACETATE AND CORN OIL (1:2) 2/WK FOR 40 WK (STUDY DURATION: LIFETIME), 8 MG/ML (TOTAL DOSE 0; 0.9 MMOL) IN 2 ML ETHYL ACETATE AND CORN OIL (1:2) 2/WK FOR 40 WK (STUDY DURATION: LIFETIME)): inactive; negative
carcinogen call (Species: RAT, Strain/Sex: F344/MALE, Route: GAVAGE, 8 MG/ML IN 0.2 ML ETHYL ACETATE AND CORN OIL 2/WK FOR 40 WK (STUDY DURATION: LIFESPAN), Tumor Site: Type of Lesion: FORESTOMACH: TUMOR): active; positive
carcinogen call (Species: RAT, Strain/Sex: F344/MALE, Route: GAVAGE, 16 MG/ML (TOTAL DOSE 0; 1.3 MMOL) IN 2 ML ETHYL ACETATE AND CORN OIL (1:2) 2/WK FOR 30 WK (STUDY DURATION: LIFETIME), 16 MG/ML (TOTAL DOSE 0; 1.3 MMOL) IN 2 ML ETHYL ACETATE AND CORN OIL (1:2) 2/WK FOR 30 WK (STUDY DURATION: LIFETIME)): inactive; negative
carcinogen call (Species: RAT, Strain/Sex: F344/MALE, Route: GAVAGE, 16 MG/ML IN 0.2 ML ETHYL ACETATE AND CORN OIL 2/WK FOR 30 WK (STUDY DURATION: LIFESPAN), Tumor Site: Type of Lesion: LUNG: TUMOR, GLANDULAR STOMACH: TUMOR, SKIN: TUMOR, Tumor Site: Type of Lesion: LUNG: TUMOR, GLANDULAR STOMACH: TUMOR, SKIN: TUMOR): active; positive

c1ccc2c(c1)ccc1cc3c4c(ccc3cc12)CCCC4
carcinogen call (Species: MOUSE, Strain/Sex: SWISS/FEMALE, Route: DERMAL, 32 UG AS 0.2% SOLUTION IN ACETONE APPLIED TO INTERSCAPULAR REGION 2/WK FOR 50 WK (STUDY DURATION: 60 WK), Tumor Site: Type of Lesion: SKIN: CARCINOMA): active; positive

CCCCCCN(C)N=O
carcinogen call (Species: HAMSTER, Strain/Sex: SYRIAN/FEMALE, Route: GAVAGE, 6.2 MG/KG 1/WK FOR 50 WK (TOTAL DOSE: 0; 2.1 MMOL) (STUDY DURATION: LIFETIME), 6.2 MG/KG 1/WK FOR 50 WK (TOTAL DOSE: 0; 2.1 MMOL) (STUDY DURATION: LIFETIME), Tumor Site: Type of Lesion: LIVER: CHOLANGIOMA, LUNG: ALVEOLAR/BRONCHIAL CARCINOMA, ALVEOLAR/BRONCHIAL ADENOMA, URINARY BLADDER: TRANSITIONAL CELL C, Tumor Site: Type of Lesion: LIVER: CHOLANGIOMA, LUNG: ALVEOLAR/BRONCHIAL CARCINOMA, ALVEOLAR/BRONCHIAL ADENOMA, URINARY BLADDER: TRANSITIONAL CELL C): active; positive
carcinogen call (Species: HAMSTER, Strain/Sex: SYRIAN/MALE, Route: GAVAGE, 6.2 MG/KG 1/WK FOR 50 WK (TOTAL DOSE: 0; 2.1 MMOL) (STUDY DURATION: LIFETIME), 6.2 MG/KG 1/WK FOR 50 WK (TOTAL DOSE: 0; 2.1 MMOL) (STUDY DURATION: LIFETIME), Tumor Site: Type of Lesion: LIVER: HEPATOCELLULAR ADENOMA, CHOLANGIOMA, HEMANGIOSARCOMA, LUNG: ALVEOLAR/ BRONCHIAL ADENOMA, NASAL MUCOSA: CARCINOMA,, Tumor Site: Type of Lesion: LIVER: HEPATOCELLULAR ADENOMA, CHOLANGIOMA, HEMANGIOSARCOMA, LUNG: ALVEOLAR/ BRONCHIAL ADENOMA, NASAL MUCOSA: CARCINOMA): active; positive
carcinogen call (Species: RAT, Strain/Sex: F344/FEMALE, Route: INTRAVESICULAR, 3.75 MG IN 0.4 ML ETHANOL: DEIONIZED WATER (1:3) 2/WK FOR 30 WK (TOTAL DOSE 1.6 MMOL) (STUDY DURATION: LIFESPAN), Tumor Site: Type of Lesion: BLADDER: TUMOR, LUNG: SQUAMOUS CELL CARCINOMA, UTERUS: TUMOR, Tumor Site: Type of Lesion: BLADDER: TUMOR, LUNG: SQUAMOUS CELL CARCINOMA, UTERUS: TUMOR): active; positive

c1ccc2ccccc2c1
carcinogen call (Species: MOUSE, Strain/Sex: B6C3F1/FEMALE, Route: INHALATION, 10, 30 PPM 6 HR/D 5 D/WK FOR 104 WK (STUDY DURATION: 104 WK), 10, 30 PPM 6 HR/D 5 D/WK FOR 104 WK (STUDY DURATION: 104 WK), Tumor Site: Type of Lesion: LUNG: ALVEOLAR/BRONCHIOLAR ADENOMA OR CARCINOMA): active; positive
carcinogen call (Species: MOUSE, Strain/Sex: B6C3F1/MALE, Route: INHALATION, 10, 30 PPM 6 HR/D 5 D/WK FOR 104 WK (STUDY DURATION: 104 WK), 10, 30 PPM 6 HR/D 5 D/WK FOR 104 WK (STUDY DURATION: 104 WK)): inactive; negative
carcinogen call (Species: MOUSE, Strain/Sex: CD-1/FEMALE, Route: INTRAPERITONEAL, 0.25, 0.5, 1.0 UMOL IN DMSO TO NEWBORN MICE ON DAY 1, 8 AND 15 OF LIFE RESPECTIVELY (TOTAL DOSE: 1.75 UMOL) (STUDY DU, 0.25, 0.5, 1.0 UMOL IN DMSO TO NEWBORN MICE ON DAY 1, 8 AND 15 OF LIFE RESPECTIVELY (TOTAL DOSE: 1.75 UMOL) (STUDY DU): inactive; negative
carcinogen call (Species: MOUSE, Strain/Sex: CD-1/MALE, Route: INTRAPERITONEAL, 0.25, O.5, 1.0 UMOL IN DMSO TO NEWBORN MICE ON DAY 1,8 AND 15 OF LIFE RESPECTIVELY (TOTAL DOSE: 1.75 UMOL) (STUDY DUR, 0.25, O.5, 1.0 UMOL IN DMSO TO NEWBORN MICE ON DAY 1,8 AND 15 OF LIFE RESPECTIVELY (TOTAL DOSE: 1.75 UMOL) (STUDY DUR): inactive; negative
carcinogen call (Species: RAT, Strain/Sex: F344/N/FEMALE, Route: INHALATION, 10, 30, 60 PPM 6 HR/D 5 D/WK FOR 105 WK (STUDY DURATION: 105 WK), 10, 30, 60 PPM 6 HR/D 5 D/WK FOR 105 WK (STUDY DURATION: 105 WK), Tumor Site: Type of Lesion: NOSE: NEUROBLASTOMA): active; positive
carcinogen call (Species: RAT, Strain/Sex: F344/N/MALE, Route: INHALATION, 10, 30, 60 PPM 6 HR/D 5 D/WK FOR 105 WK (STUDY DURATION: 105 WK), 10, 30, 60 PPM 6 HR/D 5 D/WK FOR 105 WK (STUDY DURATION: 105 WK), Tumor Site: Type of Lesion: NOSE: ADENOMA): active; positive

CCCSP(=O)(OCC)SCCC
carcinogen call (Species: Mouse, Strain/Sex: B6C3F1/Female (50/Group), Route: Oral, 0.2, 2, 30 ppm of 94.6% ethoprop in diet for 104 wk, study duration 104 wk, 0.2, 2, 30 ppm of 94.6% ethoprop in diet for 104 wk, study duration 104 wk): inactive; negative
carcinogen call (Species: Mouse, Strain/Sex: B6C3F1/Male (50/Group), Route: Oral, 0.2, 2, 30 ppm of 94.6% ethoprop in diet for 104 wk, study duration 104 wk, 0.2, 2, 30 ppm of 94.6% ethoprop in diet for 104 wk, study duration 104 wk): inactive; negative
carcinogen call (Species: Rat, Strain/Sex: Crl:CD(SD)BR VAF/Plus/Female (80-90/Group), Route: Oral, 60, 400 (reduced from 600 during wk 3) ppm of 95.6% ethoprop in diet for 104 wk, study duration 104 wk, 60, 400 (reduced from 600 during wk 3) ppm of 95.6% ethoprop in diet for 104 wk, study duration 104 wk): inactive; negative
carcinogen call (Species: Rat, Strain/Sex: Crl:CD(SD)BR VAF/Plus/Male (80-90/Group), Route: Oral, 60, 400 (reduced from 600 during wk 3) ppm of 95.6% ethoprop in diet for 104 wk, study duration 104 wk, 60, 400 (reduced from 600 during wk 3) ppm of 95.6% ethoprop in diet for 104 wk, study duration 104 wk): inactive; negative
